# Data taken from patent publication US20050043363A1, “Efficient microbial preparation of capravirine metabolites M4 and M5” (AGOURON PHARMACEUTICALS, INC., priority 2003, published 2005).
# What was measured:
# HIV = test: Antiviral activity determined measuring XTT dye reduction; type: cell-based; details: for EC50 / EC90: Human immunodeficiency virus 1, antiviral activity, XTT dye reduction, mean of 2-4 experiments (M4, M5) or 9 experiments (CPV)
# From the text: The term “EC50”, as used herein, means the statistically derived concentration of a toxicant that can be expected to cause a defined non-lethal effect in 50% of a given population of organisms under defined conditions.
# The term “EC90”, as used herein, means the statistically derived concentration of a toxicant that can be expected to cause a defined non-lethal effect in 90% of a given population of organisms under defined conditions.
# [1] = Cytotoxicity determined measuring XTT dye reduction; type: cell-based; details: compound-treated cells, 50% cytotoxicity concentration, uninfected cells
# Procedure: The term “CC50”, as used herein, means the 50% cytotoxicity concentration, which is calculated as the concentration of compound that decreases the viability of uninfected, compound-treated cells to 50% of that of uninfected, compound-free cells.
SMILES,TI (Therapeutic index = CC50/EC50) (HIV),EC50 (HIV) [µM],EC90 (HIV) [µM],CC50 [1] [µM]
CC(CO)c1nc(COC(N)=O)n(Cc2ccncc2)c1Sc1cc(Cl)cc(Cl)c1 (stereo not drawn) [M5],">6,882",0.047,0.11,> 320
"CC(C)c1nc(COC(N)=O)n(Cc2ccncc2)c1Sc1cc(Cl)cc(Cl)c1 [CPV, 2-carbamoyloxymethyl-5-(3,5-dichlorophenyl)thio-4-isopropyl-1-(4-pyridyl)methyl-1H-imidazole, reference compound]","45,667",0.0015,0.0032,69
CC(C)(O)c1nc(COC(N)=O)n(Cc2ccncc2)c1Sc1cc(Cl)cc(Cl)c1 [M4],">6,737",0.048,0.11,> 320
